These results are taken from US8071584B2 (GlaxoSmithKline LLC, priority 2007, dated 2011).

The assay concerns human monocyte stimulated cytokine production (TNF-α). Briefly: Monocyte assay (LPS-stimulated TNF-α production). It is filed as cell-based. Particulars: for IC50: human CD14+ monocytes, 200 ng/mL LPS, 24 hrs, values given as 'about', read-out: pIC50 in the monocyte assay (converted); for inhibition at 0.3 µM: 300 nM, human monocytes, LPS. On the procedure:
Effect of IKK-β inhibition on human monocyte stimulated cytokine production was assessed as follows: Monocytes were isolated from heparinized whole blood by Ficoll gradient, followed by purification of CD14+ cells using MACS magnetic cell separation beads. Isolated monocytes were then adhered to 96-well culture plates at 1×10^6 cells/mL in RPMI 1640 10% FBS (JRH Biosciences, Lenexa Kans.) for 2 h. Test compounds are added to the wells 30 minutes prior to stimulation with a final vehicle concentration of 0.1% DMSO. Monocytes were activated by the addition of 200 ng/mL endotoxin (LPS; E. coli serotype 026:B6) (Sigma, St. Louis, Mo.) and incubated for 24 hrs at 37 C. Cell-free supernates were analyzed by Alphascreen™ (Perkin Elmer, Waltham, Mass.) for TNF-α using R&D Systems matched pair Abs. Viability of the cells was determined by 10% trypan blue exclusion.

Turning to `NC(=O)c1cc(-c2nc(Br)cs2)cc2c(C3CCS(=O)(=O)CC3)c[nH]c12` [Example 83, 5-(4-Bromo-1,3-thiazol-2-yl)-3-(1,1-dioxidotetrahydro-2H-thiopyran-4-yl)-1H-indole-7-carboxamide], the IC50 is over 1000 nM.

For the molecule `NC(=O)c1cc(-c2csc(CCCO)c2)cc2c(C3CCS(=O)(=O)CC3)c[nH]c12` [Example 84, 3-(1,1-Dioxidotetrahydro-2H-thiopyran-4-yl)-5-[5-(3-hydroxypropyl)-3-thienyl]-1H-indole-7-carboxamide], the IC50 is 5.01 to 1000 nM.

As to `NC(=O)c1cc(-c2nccs2)cc2c(C3CCS(=O)(=O)CC3)c[nH]c12` [Example 85, 3-(1,1-Dioxidotetrahydro-2H-thiopyran-4-yl)-5-(1,3-thiazol-2-yl)-1H-indole-7-carboxamide], the IC50 is 5.01 to 1000 nM.

In the case of `NC(=O)c1cc(-c2csc(CC3CC3)c2)cc2c(C3CCS(=O)(=O)CC3)c[nH]c12` [Example 97, 5-[5-(Cyclopropylmethyl)-3-thienyl]-3-(1,1-dioxidotetrahydro-2H-thiopyran-4-yl)-1H-indole-7-carboxamide], the IC50 was 5.01 to 1000 nM.

Regarding `COCc1ccc(-c2cc(C(N)=O)c3[nH]cc(C4CCS(=O)(=O)CC4)c3c2)s1` [Example 98, 3-(1,1-Dioxidotetrahydro-2H-thiopyran-4-yl)-5-{5-[(methyloxy)methyl]-2-thienyl}-1H-indole-7-carboxamide], the IC50 was 5.01 to 1000 nM.

Consider `Cc1n[nH]c(C)c1-c1cc(C(N)=O)c2[nH]cc(C3CCS(=O)(=O)CC3)c2c1` [Example 140, 5-(3,5-Dimethyl-1H-pyrazol-4-yl)-3-(1,1-dioxidotetrahydro-2H-thiopyran-4-yl)-1H-indole-7-carboxamide], for which the IC50 was over 1000 nM.

Consider `NC(=O)c1c(F)c(-c2ccccc2)cc2c(C3CCS(=O)(=O)CC3)c[nH]c12` [Example 168, 3-(1,1-Dioxidotetrahydro-2H-thiopyran-4-yl)-6-fluoro-5-phenyl-1H-indole-7-carboxamide], for which the IC50 is 5.01 to 1000 nM.

Take `NC(=O)c1cc(-c2ccccc2)c(F)c2c(C3CCS(=O)(=O)CC3)c[nH]c12` [Example 169, 3-(1,1-Dioxidotetrahydro-2H-thiopyran-4-yl)-4-fluoro-5-phenyl-1H-indole-7-carboxamide]: the IC50 was 5.01 to 1000 nM.

Consider `NC(=O)c1cc(-c2ccsc2)c(F)c2c(C3CCS(=O)(=O)CC3)c[nH]c12` [Example 170, 3-(1,1-Dioxidotetrahydro-2H-thiopyran-4-yl)-4-fluoro-5-(3-thienyl)-1H-indole-7-carboxamide], for which the IC50 was 5.01 to 1000 nM.

With `COC(=O)c1cc(-c2ccc(F)cc2)cc2c([C@@H]3CCSC3)c[nH]c12` [Example 172, Methyl 5-(4-fluorophenyl)-3-[(3S)-tetrahydro-3-thienyl]-1H-indole-7-carboxylate], the IC50 is 5.01 to 1000 nM.

In the case of `COC(=O)c1cc(-c2ccc(F)cc2)cc2c([C@H]3CCSC3)c[nH]c12` [Example 173, methyl 5-(4-fluorophenyl)-3-[(3R)-tetrahydro-3-thienyl]-1H-indole-7-carboxylate], the IC50 was 5.01 to 1000 nM.

Take `NC(=O)c1cc(-c2csc(CN3CCC3)c2)cc2c(C3CCS(=O)(=O)C3)c[nH]c12` (stereo not drawn) [Example 185, 5-[5-(1-Azetidinylmethyl)-3-thienyl]-3-(1,1-dioxidotetrahydro-3-thienyl)-1H-indole-7-carboxamide]: the IC50 was 5.01 to 1000 nM.

In turn, `NC(=O)c1cc(-c2csc(CN3CCCCCC3)c2)cc2c(C3CCS(=O)(=O)C3)c[nH]c12` (stereo not drawn) [Example 186, 3-(1,1-Dioxidotetrahydro-3-thienyl)-5-[5-(hexahydro-1H-azepin-1-ylmethyl)-3-thienyl]-1H-indole-7-carboxamide] returned an inhibition at 0.3 µM of 0 to 100%.

For `NC(=O)c1cc(-c2csc(CN3CCCC3)c2)cc2c(C3CCS(=O)(=O)C3)c[nH]c12` (stereo not drawn) [Example 187, 3-(1,1-Dioxidotetrahydro-3-thienyl)-5-[5-(1-pyrrolidinylmethyl)-3-thienyl]-1H-indole-7-carboxamide], the IC50 is 5.01 to 1000 nM.

In the case of `NC(=O)c1cc(-c2ccco2)cc2c(C3CCS(=O)(=O)C3)c[nH]c12` (stereo not drawn) [Example 188, 3-(1,1-Dioxidotetrahydro-3-thienyl)-5-(2-furanyl)-1H-indole-7-carboxamide], the IC50 was 5.01 to 1000 nM.

On to `NC(=O)c1cc(-c2ccoc2)cc2c(C3CCS(=O)(=O)C3)c[nH]c12` (stereo not drawn) [Example 189, 3-(1,1-Dioxidotetrahydro-3-thienyl)-5-(3-furanyl)-1H-indole-7-carboxamide], for which the IC50 is over 1000 nM.

Regarding `NC(=O)c1cc(-c2cccs2)cc2c(C3CCS(=O)(=O)C3)c[nH]c12` (stereo not drawn) [Example 190, 3-(1,1-Dioxidotetrahydro-3-thienyl)-5-(2-thienyl)-1H-indole-7-carboxamide], the IC50 is 5.01 to 1000 nM.

Regarding `NC(=O)c1cc(-c2ccc3sccc3c2)cc2c(C3CCS(=O)(=O)C3)c[nH]c12` (stereo not drawn) [Example 191, 5-(1-Benzothien-5-yl)-3-(1,1-dioxidotetrahydro-3-thienyl)-1H-indole-7-carboxamide], the IC50 was 5.01 to 1000 nM.

In the case of `NC(=O)c1cc(-c2ccccc2)cc2c(C3CC4CCC(C3)S4(=O)=O)c[nH]c12` (stereo not drawn) [Example 192, 3-[(3-endo)-8,8-Dioxido-8-thiabicyclo[3.2.1]oct-3-yl]-5-phenyl-1H-indole-7-carboxamide], the inhibition at 0.3 µM was 0 to 100%.

On to `NC(=O)c1cc(-c2csc(CN3CCCCCC3)c2)cc2c(C3CC4CCC(C3)S4(=O)=O)c[nH]c12` (stereo not drawn) [Example 203, 3-[(3-endo)-8,8-Dioxido-8-thiabicyclo[3.2.1]oct-3-yl]-5-[5-(hexahydro-1H-azepin-1-ylmethyl)-3-thienyl]-1H-indole-7-carboxamide], for which the IC50 is 5.01 to 1000 nM.

The molecule `NC(=O)c1cc(-c2csc(CN3CCC3)c2)cc2c(C3CC4CCC(C3)S4(=O)=O)c[nH]c12` (stereo not drawn) [Example 204, 3-[(3-endo)-8,8-Dioxido-8-thiabicyclo[3.2.1]oct-3-yl]-5-[5-(1-azetidinylmethyl)-3-thienyl]-1H-indole-7-carboxamide] had an inhibition at 0.3 µM of 0 to 100%.

In the case of `NC(=O)c1cc(-c2csc(CN3CCCC3)c2)cc2c(C3CC4CCC(C3)S4(=O)=O)c[nH]c12` (stereo not drawn) [Example 205, 3-[(3-endo)-8,8-Dioxido-8-thiabicyclo[3.2.1]oct-3-yl]-5-[5-(1-pyrrolidinylmethyl)-3-thienyl]-1H-indole-7-carboxamide], the IC50 was 5.01 to 1000 nM.

Molecule `NC(=O)c1cc(-c2csc(CN3CCCCCC3)c2)cc2c(C3CC4CCC(C3)S4(=O)=O)c[nH]c12` (stereo not drawn) [Example 208, 3-[(3-exo)-8,8-Dioxido-8-thiabicyclo[3.2.1]oct-3-yl]-5-[5-(hexahydro-1H-azepin-1-ylmethyl)-3-thienyl]-1H-indole-7-carboxamide] displayed an inhibition at 0.3 µM of 0 to 100%.

`NC(=O)c1cc(-c2ccccc2)cc2c(C3CCCS(=O)(=O)CC3)c[nH]c12` (stereo not drawn) [Example 212, 3-(1,1-Dioxido-4-thiepanyl)-5-phenyl-1H-indole-7-carboxamide]: the IC50 is 5.01 to 1000 nM.

Regarding `NC(=O)c1cc(-c2ccoc2)cc2c(C3CCCS(=O)(=O)C3)c[nH]c12` (stereo not drawn) [Example 217, 3-(1,1-Dioxidotetrahydro-2H-thiopyran-3-yl)-5-(3-furanyl)-1H-indole-7-carboxamide], the inhibition at 0.3 µM was in the range of 0 to 100%.

In the case of `NC(=O)c1cc(-c2ccco2)cc2c(C3CCCS(=O)(=O)C3)c[nH]c12` (stereo not drawn) [Example 218, 3-(1,1-Dioxidotetrahydro-2H-thiopyran-3-yl)-5-(2-furanyl)-1H-indole-7-carboxamide], the IC50 was 5.01 to 1000 nM.

For the molecule `NC(=O)c1cc(-c2ccsc2)cc2c(C3CCCS(=O)(=O)C3)c[nH]c12` (stereo not drawn) [Example 219, 3-(1,1-Dioxidotetrahydro-2H-thiopyran-3-yl)-5-(3-thienyl)-1H-indole-7-carboxamide], the IC50 is 5.01 to 1000 nM.

Regarding `NC(=O)c1cc(-c2ccc(F)cc2)cc2c(C3CCCS(=O)(=O)C3)c[nH]c12` (stereo not drawn) [Example 220, 3-(1,1-Dioxidotetrahydro-2H-thiopyran-3-yl)-5-(4-fluorophenyl)-1H-indole-7-carboxamide], the inhibition at 0.3 µM lay within 0 to 100%.

With `NC(=O)c1cc(-c2ccccc2)cc2c(C3CCCS(=O)(=O)C3)c[nH]c12` (stereo not drawn) [Example 221, 3-(1,1-Dioxidotetrahydro-2H-thiopyran-3-yl)-5-phenyl-1H-indole-7-carboxamide], the inhibition at 0.3 µM lay in the range of 0 to 100%.

Molecule `NC(=O)c1cc(-c2cccs2)cc2c(C3CCCS(=O)(=O)C3)c[nH]c12` (stereo not drawn) [Example 222, 3-(1,1-Dioxidotetrahydro-2H-thiopyran-3-yl)-5-(2-thienyl)-1H-indole-7-carboxamide] registered an inhibition at 0.3 µM of 0 to 100%.

As to `CC1(C)C[C@@H](c2c[nH]c3c(C(N)=O)cc(-c4ccc(F)cc4)cc23)CCS1(=O)=O` [Example 224, 3-[(4S)-2,2-Dimethyl-1,1-dioxidotetrahydro-2H-thiopyran-4-yl]-5-(4-fluorophenyl)-1H-indole-7-carboxamide], the IC50 is over 1000 nM.

For the molecule `CC1(C)C[C@H](c2c[nH]c3c(C(N)=O)cc(-c4ccc(F)cc4)cc23)CCS1(=O)=O` [Example 225, 3-[(4R)-2,2-dimethyl-1,1-dioxidotetrahydro-2H-thiopyran-4-yl]-5-(4-fluorophenyl)-1H-indole-7-carboxamide], the IC50 was 5.01 to 1000 nM.

With `CC1(C)CC(c2c[nH]c3c(C(N)=O)cc(-c4ccccc4)cc23)CCS1(=O)=O` (stereo not drawn) [Example 226, 3-(2,2-Dimethyl-1,1-dioxidotetrahydro-2H-thiopyran-4-yl)-5-phenyl-1H-indole-7-carboxamide], the IC50 is 5.01 to 1000 nM.
